Experimental data as given in patent publication US12129248B2, “Chromobox protein inhibitors and uses thereof” (Dana-Farber Cancer Institute, Inc., priority 2016, dated 2024).
“And” between values parts separate entries of the source, which are not always exact repeats. Equal entries are not always repeated.

The molecules below were run against Human His6-CBX7 (Homo sapiens (Human), UniProt O95931) (assay: CBX7 AlphaScreen assay (binding of CBX7 chromodomain to H3K27me3 peptide)). Conditions: average; His6-CBX7 / biotinylated-H3K27me3; read-out: AVG CBX7 Alpha IC50.
Sequence of Human His6-CBX7 (O95931 11-69): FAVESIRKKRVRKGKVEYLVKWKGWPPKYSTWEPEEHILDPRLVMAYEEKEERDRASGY
Description: A biochemical assay was developed based on nanoparticle AlphaScreen assay to monitor the binding of recombinant CBX chromodomain (CBX7) to a methylated peptide (H3K27me3).
The primary assay uses recombinant CBX chromodomain and synthetic, trimethylated H3 histone tail peptide. When CBX/histone tail-binding occurs, AlphaScreen beads are brought in close proximity, resulting in singlet molecular oxygen transfer and production of a luminescent signal. Assay positives inhibiting the binding interaction are therefore expected to prevent complex formation, diminishing signal intensity. The AlphaScreen technology features an anti-Stokes shift in detection: due to energy transfer between beads by singlet oxygen and internal chemical reactions within the acceptor bead, the emission wavelength is blue-shifted relative to the excitation wavelength, which is impossible in traditional fluorescent assays. The relatively long path length of 200 nm that singlet molecular oxygen can travel enables reporting on full protein complexes and not just single target binding. […] Neither the small molecules being tested nor the target protein, CBX7, need to be chemically, conformationally, or behaviorally altered by tethering them to a surface or reporter that may decrease physiological relevance and beget screening artifacts. The primary assay monitors binding of the chromodomain of CBX7 to a histone tail containing a trimethylated lysine at K27, the biologically relevant interaction through which PRC binds to chromatin to repress transcription. This is a robust proximity-based assay that utilizes AlphaScreen technology (PerkinElmer). The assay consists of His6-CBX7 bound to a Ni^++ acceptor bead and the biotinylated histone tail bound to a streptavadin donor bead. Upon CBX7/H3K27me3 binding, the steptavidin bead comes into proximity with the Ni^++ bead to luminesce upon light excitation ([…]; see below).
The protocol for the CBX7 AlphaScreen was as follows: a standard alpha buffer (50 mM HEPES, 150 mM NaCl, 0.1% w/v BSA, 0.01% w/v Tween20) at pH 8.0 and make up two stock solutions at 2× final concentration in the alpha buffer. Solution A contains Human His6-CBX7 is used with biotinylated-H3K27me3 (residues 20-34), at 100 nM and 50 nM respectively. Solution B contains 20 nM streptavidin donor beads and 20 nM nickel acceptor beads. For 384 well assay formats, 10 uL of solution A is added to each well of the assay plate and the plate is spun at 1000 rpm for 30 seconds. 100 nL of experimental compounds from stock plates are delivered by robotic pin transfer using a Janus Workstation (PerkinElmer), allowing the compounds to interact with CBX7 binding prior to assay measurement, followed by another spin and an incubation room temperature. Finally, 10 uL of solution B is added to each well, the plate is spun again and then incubated at room temperature. AlphaScreen measurements are performed on an Envision 2104 (PerkinElmer) utilizing the manufacturer's protocol that has the correct excitation and emission wavelengths, cutoff filters, delay time, etc. A crosstalk calculation is also done through the Envision software to correct for luminescence for adjacent wells while reading the plate. The signal is then normalized to DMSO control wells on the compound plate prior to creation of the IC50 curves.

Row | IC50 | Structure (SMILES)
1 | 0.66 µM | O=C(Nc1ccc(N2CCCC2)cc1)c1ccc2nc(-c3ccc(O)c(O)c3O)c(NCc3ccccc3)n2c1 [ACV-3-142, 3-(benzylamino)-N-(4-(pyrrolidin-1-yl)phenyl)-2-(2,3,4-trihydroxyphenyl)imidazo[1,2-a]pyridine-6-carboxamide]
2 | 0.445 µM | O=C(N/N=C/c1c(O)cc(O)cc1O)c1cc(-c2ccco2)nc2ccccc12 [ACV-03]
3 | 13.6 µM | CN(C)CCCOc1ccc(/C=N/NC(=O)c2cc(-c3ccco3)nc3ccccc23)cc1 [ACV-06]
4 | 194 µM | O=C(O)c1cc(-c2ccco2)nc2ccccc12 [ACV-07 (2)]
5 | 7.39 µM | O=C(NCc1cccc(N2CCCC2)n1)c1cc(-c2ccco2)nc2ccccc12 [ACV-09]
6 | 69.5 µM | O=C(Nc1ccc(CCN2CCCC2)cc1)c1cc(-c2ccco2)nc2ccccc12 [ACV-13]
7 | 4.41 µM | O=C(CC1S/C(=N/N=C/c2cccnc2)NC1=O)Nc1ccc(N2CCCC2)cc1 (stereo not shown) [ACV-14 (1)]
8 | 6.79 µM | O=C(CC1S/C(=N/N=C/c2ccc(C(=O)O)cc2)NC1=O)Nc1ccc(N2CCCC2)cc1 (stereo not shown) [ACV-16]
9 | 1.01 µM | O=C(CC1S/C(=N/N=C/c2ccc(O)c(O)c2O)NC1=O)Nc1ccc(N2CCCC2)cc1 (stereo not shown) [ACV-17(3)]
10 | 1.56 µM | O=C(CC1S/C(=N/N=C/c2ccc(O)c(O)c2O)NC1=O)Nc1ccc(N2CCCC2)cc1 (stereo not shown) [ACV-17(4)]
11 | 3.37 µM | O=C(CC1S/C(=N/N=C/c2ccc(O)c(O)c2O)NC1=O)Nc1ccc(N2CCCC2)cc1 (stereo not shown) [ACV-17* (P2)]
12 | 65.3 µM | O=C(CC1SCC(C(=O)N/N=C/c2cccnc2)NC1=O)Nc1ccc(N2CCCC2)cc1 (stereo not shown) [ACV-24]
13 | 33.9 µM | Cc1ccc(/C=N/N=C2\NC(=O)C(CC(=O)Nc3ccc(N4CCCC4)cc3)S2)cc1F (stereo not shown) [ACV-27]
14 | 44.6 µM | O=C(CC1S/C(=N/N=C/c2cncnc2)NC1=O)Nc1ccc(N2CCCC2)cc1 (stereo not shown) [ACV-28]
15 | 404 µM | O=C(CC1S/C(=N/Cc2cccnc2)NC1=O)Nc1ccc(N2CCCC2)cc1 (stereo not shown) [ACV-31]
16 | 23.5 µM | O=C(CC1S/C(=N/N=C/c2cccc(-c3ccc(C(=O)O)cc3)c2)NC1=O)Nc1ccc(N2CCCC2)cc1 (stereo not shown) [ACV-32]
17 | 7.9 µM | O=C(CC1SCC(C(=O)N/N=C/c2ccc(O)c(O)c2O)NC1=O)Nc1ccc(N2CCCC2)cc1 (stereo not shown) [ACV-34]
18 | 10 µM | O=C(CC1S/C(=N/N=C/c2ccc(O)c(O)c2)NC1=O)Nc1ccc(N2CCCC2)cc1 (stereo not shown) [ACV-36 (1)]

Row | IC50 | Structure (SMILES)
19 | 24.5 µM | O=C(CC1S/C(=N/N=C/c2ccc(O)c(O)c2)NC1=O)Nc1ccc(N2CCCC2)cc1 (stereo not shown) [ACV-36 (2)]
20 | 114 µM | COc1cccc(/C=N/N=C2\NC(=O)C(CC(=O)Nc3ccc(N4CCCC4)cc3)S2)c1OC (stereo not shown) [ACV-37]
21 | 9100 µM | COc1ccc(-c2ccc3nc(-c4ccco4)cc(C(=O)NCCc4ccc(N(C)C)cc4)c3c2)cc1OC [ACV-43]
22 | 88.4 µM | CN1CCN(c2ccc(NC(=O)Cc3cnc(NC(=O)Cc4cccnc4)s3)cc2)CC1 [ACV-46]
23 | 403 µM | O=C(Cc1cnc(NC(=O)Cc2cccnc2)s1)Nc1ccc(N2CCCC2)cc1 [ACV-48 (1)]
24 | 17.2 µM | O=C(Cc1cnc(NC(=O)Nc2ccc(F)cc2)s1)Nc1ccc(N2CCCC2)cc1 [ACV-49]
25 | 7.2 µM | COc1cc(NC(=O)Nc2ncc(CC(=O)Nc3ccc(N4CCCC4)cc3)s2)cc(OC)c1OC [ACV-50]
26 | 24.1 µM | O=C(Cc1cnc(NC(=O)Nc2cccc(C(F)(F)F)c2)s1)Nc1ccc(N2CCCC2)cc1 [ACV-51]
27 | 9.31 µM | O=C(Cc1cnc(NC(=O)Nc2cccc(Cc3ccccc3)c2)s1)Nc1ccc(N2CCCC2)cc1 [ACV-54]
28 | 23 µM | O=C(Cc1cnc(NC(=O)Nc2cccnc2)s1)Nc1ccc(CN2CCCC2)cc1 [ACV-55]
29 | 336 µM | O=C(COCc1ccc(CN2CCCC2)cc1)N1CCN(C(=O)c2cccnc2)CC1 [ACV-57]
30 | 0.364 µM | NC(=S)N/N=C/c1ccc(O)c(O)c1O [ACV-60]
31 | 0.861 µM | Oc1ccc(/C=N/Nc2nc(-c3ccc(N4CCCC4)cc3)cs2)c(O)c1O [ACV-62]
32 | 22.5 µM | CN1CCN(CCNC(=O)CC2S/C(=N/N=C/c3ccc(O)c(O)c3O)NC2=O)CC1 (stereo not shown) [ACV-63 (2)]
33 | 5.22 µM | O=C(O)c1ccc(-c2csc(N/N=C/c3ccc(O)c(O)c3O)n2)cc1 [ACV-64]
34 | 46.7 µM | O=C(CCC(=O)c1ccc(CN2CCCC2)cc1)NC1CCCN(C(=O)c2cccnc2)C1 (stereo not shown) [ACV-70]
35 | 4920 µM | O=C(CCC(=O)N1CCCC(NC(=O)c2cccnc2)C1)c1ccc(CN2CCCC2)cc1 (stereo not shown) [ACV-71]
36 | 1.65 µM | O=C(NCCN1CCCC1)c1ccc(-c2csc(N/N=C/c3ccc(O)c(O)c3O)n2)cc1 [ACV-73]

Second part, the molecule before the results:

Row | Structure (SMILES) | IC50
37 | O=C(N/N=C/c1ccc(N2CCCC2)cc1)c1cc(-c2ccco2)nc2ccccc12 [ACV-05] | 1.88 µM
38 | CN(C)c1ccc(CCNC(=O)c2cc(-c3ccco3)nc3ccccc23)cc1 [ACV-08] | 10.3 µM
39 | CN1CCN(c2ccc(NC(=O)c3cc(-c4ccco4)nc4ccccc34)cc2)CC1 [ACV-10] | 20.2 µM
40 | O=C(O)c1cc(-c2ccco2)nc2ccc(Br)cc12 [ACV-11] | 8.51 µM
41 | CN(C)c1ccc(CC(CO)NC(=O)c2cc(-c3ccco3)nc3ccccc23)cc1 (stereo not shown) [ACV-12, N-(1-(4-(dimethylamino)phenyl)-3-hydroxypropan-2-yl)-2-(furan-2-yl)quinoline-4-carboxamide] | 6.1 µM
42 | O=C(CC1S/C(=N/N=C/c2ccccn2)NC1=O)Nc1ccc(N2CCCC2)cc1 (stereo not shown) [ACV-15] | 37.3 µM
43 | O=C(CC1S/C(=N/N=C/c2ccc(O)c(O)c2O)NC1=O)Nc1ccc(N2CCCC2)cc1 (stereo not shown) [ACV-17* (P1)] | 2.36 µM
44 | COC(=O)c1ccc(-c2ccc(/C=N/N=C3\NC(=O)C(CC(=O)Nc4ccc(N5CCCC5)cc4)S3)cc2)cc1 (stereo not shown) [ACV-20] | 28.6 µM
45 | CN(C)c1ccc(/C=N/N=C2\NC(=O)C(CC(=O)Nc3ccc(N4CCCC4)cc3)S2)cc1 (stereo not shown) [ACV-21] | 3.69 µM
46 | COc1cc(/C=N/NC(=O)C2CSC(CC(=O)Nc3ccc(N4CCCC4)cc3)C(=O)N2)ccc1O (stereo not shown) [ACV-25] | 60.9 µM
47 | O=C(CC1S/C(=N/N=C/c2ccc3cccnc3n2)NC1=O)Nc1ccc(N2CCCC2)cc1 (stereo not shown) [ACV-26] | 16.6 µM
48 | CC(C)(C)c1ccc(/C=N/N=C2\NC(=O)C(CC(=O)Nc3ccc(N4CCCC4)cc3)S2)cc1 (stereo not shown) [ACV-29] | 39 µM and 15.5 µM
49 | O=C(CC1S/C(=N/C(=O)c2ccccc2)NC1=O)Nc1ccc(N2CCCC2)cc1 (stereo not shown) [ACV-30] | 39 µM
50 | O=C(Cc1cccnc1)/N=C1\NC(=O)C(CC(=O)Nc2ccc(N3CCCC3)cc2)S1 (stereo not shown) [ACV-33] | 56.2 µM
51 | COc1ccc(NC(=O)CC2S/C(=N/N=C/c3cccnc3)NC2=O)cc1OC (stereo not shown) [ACV-38] | 165 µM
52 | O=C(CC1S/C(=N/N=C/c2ccc(Cl)nc2)NC1=O)Nc1ccc(N2CCCC2)cc1 (stereo not shown) [ACV-39] | 26.3 µM
53 | O=C(Cc1cnc(NC(=O)Cc2cccnc2)s1)Nc1ccc(Br)cc1 [ACV-41] | 1450 µM
54 | COc1ccc(-c2ccc3nc(-c4ccco4)cc(C(=O)Nc4ccc(N5CCN(C)CC5)cc4)c3c2)cc1OC [ACV-44] | 101 µM
55 | O=C(Cc1cnc(NC(=O)Nc2cc(F)c(F)cc2F)s1)Nc1ccc(N2CCCC2)cc1 [ACV-47] | 14400 µM
56 | O=C(Cc1cnc(NC(=O)Cc2cccnc2)s1)Nc1ccc(N2CCCC2)cc1 [ACV-48 (2)] | 607 µM
57 | COc1ccc(NC(=O)Nc2ncc(CC(=O)Nc3ccc(N4CCCC4)cc3)s2)cc1OC [ACV-53] | 12.5 µM
58 | O=C(COCc1cccnc1)N1CCN(C(=O)c2ccc(CCN3CCCC3)cc2)CC1 [ACV-56] | 64.1 µM
59 | C(=N\Nc1nc(-c2ccc(OCc3ccccc3)cc2)cs1)/c1cccnc1 [ACV-59] | 759 µM
60 | O=C(Nc1csc(N/N=C/c2ccc(O)c(O)c2O)n1)c1ccc(CCN2CCCC2)cc1 [ACV-61] | 3.94 µM
61 | CN(C)c1ccc(CCNC(=O)CC2SC(N/N=C/c3ccc(O)c(O)c3O)=NC2=O)cc1 (stereo not shown) [ACV-66] | 11.9 µM
62 | COc1cccc(C(=O)N2CCN(C(=O)COc3cccc(C)c3)CC2)c1OC [ACV-72] | 124 µM
63 | O=C(Cc1cnc(NC(=O)C(F)(F)c2ccccc2)s1)Nc1ccc(N2CCCC2)cc1 [ACV-74] | 167 µM
64 | CN1CCN(CCNC(=O)c2ccc(-c3csc(N/N=C/c4ccc(O)c(O)c4O)n3)cc2)CC1 [ACV-75] | 0.0686 µM
65 | CN(C)c1ccc(CCNC(=O)CC2SC(N/N=C/c3ccc(N4CCCC4)cc3)=NC2=O)cc1 (stereo not shown) [ACV-76] | 3.76 µM

Same assay, conditions: versus Scaffold 2 (FIG. 7)

Row | Structure (SMILES) | improvement in binding affinity compared to the original scaffold
66 | O=C(N/N=C/c1c(O)cc(O)cc1O)c1cc(-c2ccco2)nc2ccccc12 [ACV-03] | more than 5 fold
67 | O=C(N/N=C/c1ccc(N2CCCC2)cc1)c1cc(-c2ccco2)nc2ccccc12 [ACV-05] | more than 5 fold
